Laboratory results as given in patent US8637702B2, “Derivatives of N-hydroxybenzamide for treating HIV infections” (Italfarmaco S.p.A., priority 2009, dated 2014).

Tests used:
[1] = system: HIV-1 expression in ACH-2 cells; assay: Induction of the HIV-1 expression in the ACH-2 cell line (p24); format: cell-based; details: 24 hours
Description: ACH2 cells were obtained through AIDS Research and Reference Reagent Program, Division of AIDS, National Institute of Allergy and Infectious Diseases, National Institutes of Health, Bethesda, Md. The cells were cultured in flasks, washed in RPMI and resuspended in RPMI/10% FCS at a concentration of 2×10^6 cells/mL. […] After 24 hours of incubation at 37° C./5% CO2, 50 μL of supernatant were removed for the cytotoxicity assay of the lactate dehydrogenase (LDH) and Triton-X-100 (0.5% vol/vol final concentration) were added to each culture. The p24 assays of the lysates were performed immediately.
p24 was measured using specific antibodies immobilized on magnetic beads as previously described [Nold M. F. et al. J. Immunol. […] The levels of p24 for each experiment without HDAC inhibitors were fixed at 1.0 and the increase values by the number of times for each experiment and each analogous were calculated.

[2] = Monzani et al., EUROTOX 2007; cited from earlier work
HDAC4 = HDAC4 (Homo sapiens, UniProt P56524); assay: Inhibition of histone deacetylase isoforms, HDAC4
Chain of HDAC4 (P56524 whole entry, canonical isoform): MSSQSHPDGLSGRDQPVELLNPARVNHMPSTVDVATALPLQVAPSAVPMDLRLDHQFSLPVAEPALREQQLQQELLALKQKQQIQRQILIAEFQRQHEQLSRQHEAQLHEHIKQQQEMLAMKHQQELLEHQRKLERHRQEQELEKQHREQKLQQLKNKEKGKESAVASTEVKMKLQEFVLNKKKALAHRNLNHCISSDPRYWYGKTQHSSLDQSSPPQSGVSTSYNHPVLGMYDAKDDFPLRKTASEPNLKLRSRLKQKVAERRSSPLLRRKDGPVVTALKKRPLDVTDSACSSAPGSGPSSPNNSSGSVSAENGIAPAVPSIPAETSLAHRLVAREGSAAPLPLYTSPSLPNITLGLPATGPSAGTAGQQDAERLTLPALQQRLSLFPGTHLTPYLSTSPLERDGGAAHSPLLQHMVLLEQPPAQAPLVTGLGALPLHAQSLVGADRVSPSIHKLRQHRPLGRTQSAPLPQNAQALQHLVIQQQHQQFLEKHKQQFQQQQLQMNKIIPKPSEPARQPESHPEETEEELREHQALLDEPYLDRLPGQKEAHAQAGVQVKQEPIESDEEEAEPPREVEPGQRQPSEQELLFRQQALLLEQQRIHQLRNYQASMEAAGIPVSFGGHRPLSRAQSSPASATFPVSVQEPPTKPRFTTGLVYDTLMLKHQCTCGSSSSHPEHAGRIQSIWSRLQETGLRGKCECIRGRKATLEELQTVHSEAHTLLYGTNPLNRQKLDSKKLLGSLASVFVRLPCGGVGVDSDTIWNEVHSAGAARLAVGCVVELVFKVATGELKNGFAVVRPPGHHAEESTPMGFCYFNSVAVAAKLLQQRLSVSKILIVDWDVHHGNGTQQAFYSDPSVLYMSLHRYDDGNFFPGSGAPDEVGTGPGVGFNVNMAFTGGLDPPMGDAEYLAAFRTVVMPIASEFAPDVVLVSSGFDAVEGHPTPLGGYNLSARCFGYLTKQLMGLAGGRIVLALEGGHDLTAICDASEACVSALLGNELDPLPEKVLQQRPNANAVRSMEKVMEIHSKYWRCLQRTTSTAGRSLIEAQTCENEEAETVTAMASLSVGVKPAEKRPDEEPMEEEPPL
Description: (§1) Recombinant human enzymes were acquired from BPS Biosciences (CA, USA). Isoforms of Class I HDAC1, 2, 3; HDAC6, 10 of Class IIb and Class IV HDAC11 were tested using the Fluor-de-Lys fluorogenic synthetic substrate (Enzo Life Sciences, Plymouth Meeting, Pa.). […] Each inhibitor was dissolved in DMSO and then further diluted in an assay buffer. […] The assays were performed by pre-incubating each enzyme with the inhibitors for 15 minutes at 37° C. The reaction was started by adding the substrate at 37° C. and allowed to proceed for 60 minutes. The fluorescent signal was generated by adding 50 μL of a twice concentrated developer solution 2 (Enzo) containing trichostatin A 4 μM.

HDAC9 = HDAC9 (Homo sapiens, UniProt Q9UKV0); assay: Inhibition of histone deacetylase isoforms, HDAC9
Chain of HDAC9 (Q9UKV0 whole entry, canonical isoform): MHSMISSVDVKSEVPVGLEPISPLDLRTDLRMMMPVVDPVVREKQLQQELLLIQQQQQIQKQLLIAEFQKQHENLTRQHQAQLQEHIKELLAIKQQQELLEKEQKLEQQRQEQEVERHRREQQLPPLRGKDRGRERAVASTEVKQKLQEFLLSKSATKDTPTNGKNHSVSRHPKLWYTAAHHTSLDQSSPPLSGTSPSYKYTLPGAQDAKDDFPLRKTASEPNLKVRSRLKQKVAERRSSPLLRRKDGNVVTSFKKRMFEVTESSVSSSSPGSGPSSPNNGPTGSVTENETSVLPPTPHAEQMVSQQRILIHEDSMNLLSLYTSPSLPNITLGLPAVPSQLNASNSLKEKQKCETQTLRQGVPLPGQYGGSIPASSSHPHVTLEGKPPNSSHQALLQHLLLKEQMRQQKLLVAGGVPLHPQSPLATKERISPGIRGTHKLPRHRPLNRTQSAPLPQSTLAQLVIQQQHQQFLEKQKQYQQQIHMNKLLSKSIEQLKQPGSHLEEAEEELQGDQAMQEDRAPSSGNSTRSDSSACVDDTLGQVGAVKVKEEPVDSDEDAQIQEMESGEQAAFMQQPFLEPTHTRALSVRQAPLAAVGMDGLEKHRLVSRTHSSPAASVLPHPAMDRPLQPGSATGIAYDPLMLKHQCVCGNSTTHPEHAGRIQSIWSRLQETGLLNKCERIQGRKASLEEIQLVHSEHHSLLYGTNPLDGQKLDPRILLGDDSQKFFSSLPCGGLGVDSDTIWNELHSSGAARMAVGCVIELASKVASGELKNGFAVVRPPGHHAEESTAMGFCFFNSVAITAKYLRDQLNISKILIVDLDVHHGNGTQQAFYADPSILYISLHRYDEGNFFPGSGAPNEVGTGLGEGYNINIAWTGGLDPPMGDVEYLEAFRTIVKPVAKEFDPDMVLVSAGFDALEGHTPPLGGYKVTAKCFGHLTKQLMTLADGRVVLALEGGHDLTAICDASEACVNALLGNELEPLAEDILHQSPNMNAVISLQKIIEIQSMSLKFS
Description: as §1

HDAC10 = target: T1, HDAC10 (Homo sapiens, UniProt Q969S8); assay: Inhibition of histone deacetylase isoforms, HDAC10
T1 sequence (Q969S8 1-669): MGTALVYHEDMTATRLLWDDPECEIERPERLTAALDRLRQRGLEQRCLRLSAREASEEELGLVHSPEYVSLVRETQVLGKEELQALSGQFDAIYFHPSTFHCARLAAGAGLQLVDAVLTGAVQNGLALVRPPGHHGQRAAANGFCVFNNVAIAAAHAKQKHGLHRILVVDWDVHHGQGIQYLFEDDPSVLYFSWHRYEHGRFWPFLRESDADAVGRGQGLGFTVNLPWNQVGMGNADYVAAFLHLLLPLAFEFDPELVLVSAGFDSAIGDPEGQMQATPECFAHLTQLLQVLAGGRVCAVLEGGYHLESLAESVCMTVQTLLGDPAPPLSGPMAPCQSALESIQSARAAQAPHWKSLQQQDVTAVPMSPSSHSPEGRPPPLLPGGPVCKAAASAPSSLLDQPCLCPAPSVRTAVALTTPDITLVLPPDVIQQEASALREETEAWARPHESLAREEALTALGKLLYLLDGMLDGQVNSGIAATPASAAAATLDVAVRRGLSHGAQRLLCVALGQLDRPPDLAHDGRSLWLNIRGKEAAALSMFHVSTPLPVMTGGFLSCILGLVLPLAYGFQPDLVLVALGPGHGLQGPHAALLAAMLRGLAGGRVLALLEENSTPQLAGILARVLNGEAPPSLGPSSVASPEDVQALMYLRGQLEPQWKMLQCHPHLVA
Description: as §1

latent HIV reservoir = details: combined with HAART, clinical studies; cited from earlier work
bacteria = details: in vitro, Zolinza package leaflet; cited from earlier work
[3] = system: micronucleated erythrocytes; details: administered to mice, Zolinza package leaflet; cited from earlier work
[4] = 400 mg/day, Zolinza package leaflet; cited from earlier work

Structure (SMILES): CCN(CC)Cc1ccc2cc(COC(=O)Nc3ccc(C(=O)NO)cc3)ccc2c1.Cl [ITF2357, Diethyl-[6-(4-hydroxycarbamoyl-phenylcarbamoyloxymethyl)-naphtalen-2-yl-methyl]ammonium chloride]
- increase of the number of times in the level of p24 with respect to control ([1]; 31 nM): 1 times
- increase of the number of times in the level of p24 with respect to control ([1]; 63 nM): 1 times
- increase of the number of times in the level of p24 with respect to control ([1]; 125 nM): 2 times
- increase of the number of times in the level of p24 with respect to control ([1]; 250 nM): 15 times
- mutagenicity [2]: non-mutagenic
- IC50 (HDAC4): 724 nM
- IC50 (HDAC9): 518 nM
- IC50 (HDAC10): 351 nM

Structure (SMILES): CCCC(CCC)C(=O)O [VPA, Valproic acid]
- diminution of the latent reservoir (latent HIV reservoir): without leading to any considerable diminution of the latent reservoir

Structure (SMILES): O=C(CCCCCCC(=O)Nc1ccccc1)NO [SAHA]
- mutagenicity in bacterial back-mutation assays (Ames test) (bacteria): mutagenic
- incidence of micronucleated erythrocytes [3]: increases the incidence of micronucleated erythrocytes
- adverse effects in patients [4]: numerous, serious adverse effects such as diarrhoea, tiredness, nausea, thrombocytopenia, anorexia and dysgeusia
